Source: US6737383B1, “Herbicidal oxadiazolidines” (priority 1999, dated 2004)

Experiments:
blackgrass = test: Test E blackgrass; type: in vivo, Alopecurus myosuroides; details: Preemergence
bedstraw = test: Test B pre/postemergence bedstraw; type: in vivo, Galium aparine
Method in brief: (§1)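 Herbicidal effect was estimated by eye on a ten-point control scale after plants spent twelve to sixteen days in a greenhouse following soil or foliar treatment. Foliar sprays targeted plants at one to four leaves; all doses were formulated in a non-phytotoxic solvent with surfactant.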

Alexandergrass = test: Test D Alexandergrass; type: in vivo, Brachiaria plantaginea; details: Preemergence, 0 to 100 scale
Method in brief: (§2)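 Seeds were sown in greenhouse pots, one species per pot or compartment. Compounds were in a non-phytotoxic solvent mixture with surfactant; preemergence applications went on the sandy loam surface within one day of planting. Injury was rated visually after 14 to 21 days, 0 (none) to 100 (complete control).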

winter barley = test: Test E winter barley; type: in vivo, Hordeum vulgare; details: Preemergence
wild oat = test: Test E wild oat; type: in vivo, Avena fatua; details: Preemergence, 0 to 100 scale where 0 is no effect and 100 is complete control
Italian ryegrass = test: Test E Italian ryegrass; type: in vivo, Lolium multiflorum; details: Preemergence
common ragweed = test: Test D common ragweed; type: in vivo, Ambrosia elatior; details: Preemergence, 0 to 100 scale
From the text: (§3) Seeds, tubers, or plant parts of Alexandergrass (Brachiaria plantaginea), bermuda-grass (Cynodon dactylon), common pursiane (Portulaca oleracea), common ragweed (Ambrosia elatior), common groundsel (Senecio vulgaris), dallisgrass (Paspalum dilatatum), goosegrass (Eleusine indica), guineagrass (Panicum maximum), itchgrass (Rottboellia exaltata), Johnson grass (Sorghum halepense), large crabgrass (Digitaria sanguinalis), pitted morningglory (Ipomoea lacunosa), purple nutsedge (Cyperus rotundus), sandbur (Cenchrus echinatus), sourgrass (Trichachne insularis), Spanishneedles (Bidens bipinnata), surinam grass (Brachiaria decumbens) and tall mallow (Malva sylvestris) were planted into greenhouse pots of flats containing greenhouse planting medium. Plant species were grown in separate pots or individual compartments. Preemergence applications were made within one day of planting the seed or plant part.
(§4) Test chemicals were formulated in a non-phytotoxic solvent mixture which included a surfactant and applied preemergence to the surface of the pot containing seeds in a sandy loam soil. Untreated control pots and treated pots were placed in the greenhouse for growth and visually evaluated for injury 14 to 21 days after herbicide application. Plant response ratings, summarized in Table C, are based on a 0 to 100 scale where 0 is no injury and 100 is complete control. A dash (−) response means no test result.

winter wheat [1] = test: Test E winter wheat; type: in vivo, Triticum aestivum; details: Postemergence
Method in brief: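 Visually scored herbicidal effect relative to untreated plants, taken ~21 to 28 days post-application; compound in solvent with surfactant; postemergence sprays at the 1- to 4-leaf stage.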

rice = test: Test B flood test rice; type: in vivo, Oryza sativa
Method in brief: (§5)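 Plants were grown to the 2-leaf stage before treatment with test chemical, then held in a greenhouse for twelve to sixteen days. Injury was visually rated against untreated controls on a 0–10 scale, where 0 is no effect and 10 is complete control.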

duck salad = test: Test B flood test duck salad; type: in vivo, Heteranthera limosa
Method in brief: as §5

dallisgrass = test: Test D dallisgrass; type: in vivo, Paspalum dilatatum; details: Preemergence, 0 to 100 scale
Method in brief: as §2

goosegrass = test: Test D goosegrass; type: in vivo, Eleusine indica; details: Preemergence, 0 to 100 scale
From the text: as §3, §4

green foxtail = test: Test E green foxtail; type: in vivo, Setaria viridis; details: Preemergence
wheat = test: Test B pre/postemergence wheat; type: in vivo, Triticum aestivum
Method in brief: as §1

winter wheat [2] = test: Test E winter wheat; type: in vivo, Triticum aestivum; details: Preemergence
[3] = Rate 1000 g/ha, 0 to 100 scale where 0 is no effect and 100 is complete control
[4] = Postemergence, Rate 62 g/ha, scale 0 to 10, 0 is no effect, 10 is complete control
[5] = Postemergence, Rate 250 g/ha, scale 0 to 10, 0 no effect, 10 complete control
[6] = Preemergence, Rate 31 g/ha, visual rating, scale 0 to 10 (0 no effect, 10 complete control)
[7] = Preemergence, Rate 62 g/ha, scale 0 to 10, 0 is no effect, 10 is complete control
[8] = Preemergence, Rate 125 g/ha, scale 0 to 10 (0 no effect, 10 complete control)
[9] = Preemergence, Rate 250 g/ha, scale of 0 to 10 where 0 is no effect and 10 is complete control
[10] = Rate 125 g/ha, Postemergence, scale 0 to 10, 0 no effect, 10 complete control
[11] = Rate 16 g/ha, 0 no injury, 100 complete control
[12] = Rate 32 g/ha, 0 no injury, 100 complete control
[13] = Rate 64 g/ha, 0 no injury, 100 complete control
[14] = Rate 125 g/ha, 0 no injury, 100 complete control
[15] = Rate 500 g/ha, 0 to 100 scale where 0 is no effect and 100 is complete control
[16] = Rate 125 g/ha, Postemergence section (flood test species), scale 0 to 10, 0 no effect, 10 complete control
[17] = Rate 250 g/ha, headed Pre-emergence (flood test species), scale 0 to 10 (0 no effect, 10 complete control)
[18] = Rate 500 g/ha, Postemergence section of Table B, 0 to 10 scale (0 no effect, 10 complete control)
[19] = Rate 500 g/ha, headed Pre-emergence (flood test species), scale 0 to 10 (0 no effect, 10 complete control)
[20] = Rate 1000 g/ha, Pre-emergence (as headed), scale 0 to 10
[21] = Rate 2000 g/ha, Pre-emergence (as headed), scale 0 to 10
[22] = flood test, listed under Postemergence, Rate 250 g/ha, scale 0 to 10, 0 no effect, 10 complete control

COc1ccccc1-n1c(=O)on(C(=O)N(c2ccc(F)cc2)C(C)C)c1=O [Compound 30]
10: Plant response rating, Barley (winter) (winter barley; Rate 250 g/ha, 0 to 100 scale) | Plant response rating, Barley (winter) (winter barley; [15]) | Plant response rating, Barley (winter) (winter barley; [3]) | Plant response rating, Wild oat (wild oat; Rate 500 g/ha)
70: Plant response rating, Goosegrass (goosegrass; [13])
30: Plant response rating, Blackgrass (blackgrass; Rate 250 g/ha, 0 to 100 scale) | Plant response rating, Blackgrass (blackgrass; [3]) | Plant response rating, Goosegrass (goosegrass; [11]) | Plant response rating, Green foxtail (green foxtail; Rate 250 g/ha, 0 to 100 scale)
80: Plant response rating, Alexandergrass (Alexandergrass; Rate 250 g/ha) | Plant response rating, Dallisgrass (dallisgrass; Rate 250 g/ha)
98: Plant response rating, Goosegrass (goosegrass; Rate 500 g/ha)
100: Plant response rating, Dallisgrass (dallisgrass; Rate 500 g/ha)
20: Plant response rating, Wild oat (wild oat; Rate 1000 g/ha) | Plant response rating, I. Ryegrass (Italian ryegrass; Rate 250 g/ha, 0 to 100 scale)
85: Plant response rating, Goosegrass (goosegrass; [14]) | Plant response rating, Goosegrass (goosegrass; Rate 250 g/ha)
50: Plant response rating, Alexandergrass (Alexandergrass; [14]) | Plant response rating, I. Ryegrass (Italian ryegrass; [3]) | Plant response rating, Dallisgrass (dallisgrass; [13])
0: Bedstraw plant response rating (bedstraw; [4]) | Bedstraw plant response rating (bedstraw; [5]) | Bedstraw plant response rating (bedstraw; [6]) | Plant response rating, Bedstraw (bedstraw; [7]) | Plant response rating, Bedstraw (bedstraw; [8]) | Plant response rating, Bedstraw (bedstraw; [9]) | Bedstraw plant response rating (bedstraw; Rate 31 g/ha, Postemergence, scale 0 to 10) | Bedstraw plant response rating (bedstraw; [10]) | Plant response rating, Alexandergrass (Alexandergrass; [11]) | Plant response rating, Alexandergrass (Alexandergrass; [12]) | Plant response rating, C. ragweed (common ragweed; [11]) | Plant response rating, C. ragweed (common ragweed; [12]) | Plant response rating, C. ragweed (common ragweed; [13]) | Plant response rating, C. ragweed (common ragweed; [14]) | Plant response rating, C. ragweed (common ragweed; Rate 250 g/ha) | Plant response rating, C. ragweed (common ragweed; Rate 500 g/ha) | Plant response rating, Wheat (winter) (winter wheat [1]; Rate 250 g/ha, 0 to 100 scale (0 no effect, 100 complete control)) | Plant response rating, Wheat (winter) (winter wheat [1]; Rate 1000 g/ha, 0 to 100 scale, 0 is no effect and 100 is complete control) | Plant response rating, Wheat (winter) (winter wheat [1]; Rate 500 g/ha, 0 to 100 scale, 0 no effect, 100 complete control) | Rice plant response rating (rice; [4]) | Rice plant response rating (rice; [16]) | Rice plant response rating (rice; [17]) | Rice plant response rating (rice; [18]) | Plant response rating, Rice (rice; [19]) | Rice plant response rating (rice; [20]) | Rice plant response rating (rice; [21]) | Rice plant response rating (rice; [22]) | Ducksalad plant response rating (duck salad; [4]) | Ducksalad plant response rating (duck salad; [16]) | Ducksalad plant response rating (duck salad; [17]) | Ducksalad plant response rating (duck salad; [18]) | Plant response rating, Ducksalad (duck salad; [19]) | Ducksalad plant response rating (duck salad; [20]) | Ducksalad plant response rating (duck salad; [21]) | Ducksalad plant response rating (duck salad; [22]) | Plant response rating, Dallisgrass (dallisgrass; [11]) | Plant response rating, Dallisgrass (dallisgrass; [12]) | Wheat plant response rating (wheat; [4]) | Wheat plant response rating (wheat; [5]) | Wheat plant response rating (wheat; [6]) | Plant response rating, Wheat (wheat; [7]) | Plant response rating, Wheat (wheat; [8]) | Wheat plant response rating (wheat; [10]) | Plant response rating, Wheat (winter) (winter wheat [2]; Rate 250 g/ha, 0 to 100 scale) | Plant response rating, Wheat (winter) (winter wheat [2]; [15]) | Plant response rating, Wheat (winter) (winter wheat [2]; [3])
40: Plant response rating, Alexandergrass (Alexandergrass; [13]) | Plant response rating, I. Ryegrass (Italian ryegrass; [15]) | Plant response rating, Goosegrass (goosegrass; [12])
60: Plant response rating, Dallisgrass (dallisgrass; [14]) | Plant response rating, Green foxtail (green foxtail; [15]) | Plant response rating, Green foxtail (green foxtail; [3])
2: Plant response rating, Wheat (wheat; [9])
90: Plant response rating, Alexandergrass (Alexandergrass; Rate 500 g/ha)
